“And” between values parts separate entries of the source, which are not always exact repeats. Identical values can stand only once. Counter-ions that a name gives are not always drawn. Like-named read-outs stand apart in the source and are kept apart here.
How the values were obtained:
[1] = tested on: mucin immobilized to PC IAM particles; experiment: pH and mucin layer thickness dependence of partition ratio on MIC columns (1:2 and 2:1); settings: for (1:2) k′ (pH 3) / (1:2) k′ (pH 5) / (1:2) k′ (pH 7): column 1:2 mucin to PC IAM, 0.32 μm mucin layer; for (1:2) k′ (pH 3) / (2:1) k′ (pH 3): mobile phase pH 3; for (1:2) k′ (pH 5) / (2:1) k′ (pH 5): mobile phase pH 5; for (1:2) k′ (pH 7) / (2:1) k′ (pH 7): mobile phase pH 7; for (2:1) k′ (pH 3) / (2:1) k′ (pH 5) / (2:1) k′ (pH 7): column 2:1 mucin to PC IAM, 0.36 μm mucin layer; for k′MIC (1:2): column 1:2, 0.32 μm; for k′MIC (1:2) / k′MIC (2:1): pH 7, Table 9; for k′MIC (2:1): column 2:1, 0.36 μm
[2] = tested on: mucin immobilized to IAM.PC.DD2; experiment: HPLC on MIC column (2:1 mucin to PC IAM particles): retention time, k′MIC, derived Km and Peff MIC; settings: for k′MIC / Retention Time: MIC column 2:1 mucin:IAM, MPS pH 7.4; for Retention Time: isocratic 0.3 ml/min; for Dm: membrane diffusion coefficient calculated from molecular weight
Procedure: [formula] where Dm is the membrane diffusion coefficient of the solute, Km is the membrane equilibrium constant, and L is the membrane thickness (Stein, W., Transport and Diffusion Across Cell Membranes, Academic Press, Orlando, Fla. (1986)). […] Since molecular weight, MW, is proportional to molecular size, Dm may also written as,
[formula] Thus, Dm can be calculated from the molecular weight. Furthermore, Km is calculated by the following equation, Km−(Vm/Vs)k′, [4] where Vm is the volume of the mobile phase, Vs is the internal volume of the stationary phase, and k′ is the partition ratio (Pidgeon and Ong, Chemtech. June, 38-48 (1995)). The partition ratio is determined by the equation, k′−(tr−to)/to, [5] where tr is the retention time of the drug and to is the void volume of the column. Both tr and to can be experimentally determined in order to obtain k′.
Equation 2 can be used to determine Km for a given MIC medium. Both Dm and L are known from the discussion above, and Peff can be calculated for various drugs having known in vivo absorption. For example, a number of drug permeability coefficients, Peff, derived from in vivo experiments are listed in literature. […] See Example 5 below.

[3] = single-pass perfusions, cited from earlier work
[4] = cited from earlier work

Compound | (1:2) k′ (pH 3) [1] | (1:2) k′ (pH 5) [1] | (1:2) k′ (pH 7) [1] | (2:1) k′ (pH 3) [1] | (2:1) k′ (pH 5) [1] | (2:1) k′ (pH 7) [1] | k′MIC [2] | Retention Time [2] | Dm [2] | further results
C=C[C@H]1C[N@@]2CC[C@H]1C[C@@H]2[C@@H](O)c1ccnc2ccc(OC)cc12 [quinidine, HCl] |  |  |  |  |  |  | 70.4286 | 5.0 | 0.0026 | 
OC[C@@H](O)[C@@H](O)[C@H](O)[C@H](O)CO [Mannitol] |  |  |  |  |  |  | 33.4286 | 2.4 | 0.0055 | 
CC(C)NCC(O)COc1ccc(CC(N)=O)cc1 (centres unmarked) [Atenolol] | 39.00 | 39.00 | 39.00 | 29.00 | 31.86 | 37.33 |  |  |  | Peff Loc-I-Gut (×10^−4 cm/s) ([3]; Table 5): 0.15 ×10^−4 cm/s; Peff Loc-I-Gut (×10^−4 cm/s) ([3]; Table 6): 0.15 ×10^−4 cm/s; Peff Loc-I-Gut (×10^−4 cm/s) ([3]; Table 9): 0.2 ×10^−4 cm/s; k′MIC (1:2) [1]: 39; k′MIC (2:1) [1]: 37; % Absorbed ([4]; Table 5): 50%; % Absorbed ([4]; Table 6): 50%
CN(CC(=O)O)C(=N)N [Creatine] | 39.00 | 39.00 | 39.00 | 20.43 | 23.29 | 32.33 | 30.4286 | 2.2 | 0.0088 | Peff Loc-I-Gut (×10^−4 cm/s) ([3]; Table 5): 0.3 ×10^−4 cm/s; Peff Loc-I-Gut (×10^−4 cm/s) ([3]; Table 9): 0.3 ×10^−4 cm/s; k′MIC (1:2) [1]: 25.7; k′MIC (2:1) [1]: 24; K′MIC ([2]; MIC 2:1, Table 5): 30.43; Peff MIC (×10^−4 cm/s) ([2]; determined by linear equation, Table 5): −0.22 ×10^−4 cm/s; % Absorbed ([4]; Table 5): 0%
CN/C(=N/CCSCc1nc[nH]c1C)NC#N [Cimetidine] | 25.67 | 29.00 | 44.00 | 17.57 | 23.29 | 35.67 |  |  | 0.0039 and 0.0040 | 
NCC(=O)O [glycine] | none | none | none | none | none | none |  |  |  | 
COc1ccc(CCN(C)CCCC(C#N)(c2ccc(OC)c(OC)c2)C(C)C)cc1OC (centres unmarked) [Verapamil] |  |  |  |  |  |  | 71.8571 | 5.1 | 0.0020 | K′MIC ([2]; MIC 2:1, Table 5): 71.86
Nc1nc2c(ncn2COCCO)c(=O)[nH]1 [Acyclovir] | 25.67 | 15.67 | 25.67 | 20.43 | 20.43 | 24.00 | 33.5714 | 2.4 | 0.0044 | 
Cn1c(=O)c2c(ncn2C)n(C)c1=O [Caffeine] | 44.00 | 44.00 | 45.67 | 34.71 | 34.71 | 39.00 | 37.5714 | 2.7 | 0.0051 | 
COc1ccc2cc([C@H](C)C(=O)O)ccc2c1 [Naproxen] |  |  |  |  |  |  |  |  |  | Peff Loc-I-Gut (×10^−4 cm/s) ([3]; Table 5): 8.0 ×10^−4 cm/s; Peff Loc-I-Gut (×10^−4 cm/s) ([3]; Table 6): 8.0 ×10^−4 cm/s; Peff Loc-I-Gut (×10^−4 cm/s) ([3]; Table 9): 8.0 ×10^−4 cm/s; % Absorbed ([4]; Table 5): 100%; % Absorbed ([4]; Table 6): 100%
NS(=O)(=O)c1cc(C(=O)O)c(NCc2ccco2)cc1Cl [Furosemide] | 40.67 | 37.33 | 35.67 | 30.43 | 27.57 | 25.67 |  |  |  | Peff Loc-I-Gut (×10^−4 cm/s) ([3]; Table 5): 0.3 ×10^−4 cm/s; Peff Loc-I-Gut (×10^−4 cm/s) ([3]; Table 9): 0.3 ×10^−4 cm/s; k′MIC (1:2) [1]: 35.7; k′MIC (2:1) [1]: 25.7; % Absorbed ([4]; Table 5): 60%
CC(C)C[C@H](N)C(=O)O [leucine] | none | none | none | none | none | none |  |  |  | 
CC(COc1ccccc1)N(CCCl)Cc1ccccc1 (centres unmarked) [Phenoxybenzamine HCl] | 20.67 | 29.00 | 29.00 | 20.43 | 17.57 | 15.67 |  |  |  | 

More lines, main results first:

(1:2) k′ (pH 3) [1] | (1:2) k′ (pH 5) [1] | (1:2) k′ (pH 7) [1] | (2:1) k′ (pH 3) [1] | (2:1) k′ (pH 5) [1] | (2:1) k′ (pH 7) [1] | k′MIC [2] | Retention Time [2] | Dm [2] | Compound | further results
87.33 | 85.67 | 24.00 | 70.43 | 67.57 | 22.33 | 71.8571 | 5.1 | 0.0025 | O=C(O)c1cc(/N=N/c2ccc(S(=O)(=O)Nc3ccccn3)cc2)ccc1O [sulfasalazine] | 
10.67 | 29.00 | 12.33 | none | 13.29 | 57.33 |  |  |  | CN(Cc1cnc2nc(N)nc(N)c2n1)c1ccc(C(=O)N[C@@H](CCC(=O)O)C(=O)O)cc1 [amethopterin] | 
25.67 | 30.67 | 39.00 | 21.86 | 24.71 | 19.00 | 54.7143 | 3.9 | 0.0032 | CC(=O)CC(c1ccccc1)c1c(O)c2ccccc2oc1=O (centres unmarked) [Warfarin] | δ = log k′MIC − log k′IAM [2]: 0.59; log k′MIC ([2]; MIC 2:1): 1.74
 |  |  |  |  |  | 33.2857 | 2.4 | 0.0047 | C[C@](N)(Cc1ccc(O)c(O)c1)C(=O)O [α-methyldopa] | Peff Loc-I-Gut (×10^−4 cm/s) ([3]; Table 5): 0.2 ×10^−4 cm/s; Peff MIC (×10^−4 cm/s) [2]: 0.10 ×10^−4 cm/s; K′MIC ([2]; MIC 2:1, Table 5): 33.29; % Absorbed ([4]; Table 5): 0%
34.00 | 40.67 | 22.33 | 30.43 | 24.71 | 20.67 | 38.5714 | 2.8 | 0.0055 | CC(=O)Oc1ccccc1C(=O)O [acetyl salicylic acid] | 
64.00 | 65.67 | 64.00 | 50.43 | 51.86 | 62.33 | 38.2857 | 2.8 | 0.0066 | CC(=O)Nc1ccc(O)cc1 [acetaminophen] | 
 |  |  |  |  |  | 36.1429 | 2.6 | 0.0023 | CC(C)(C)NC[C@H](O)COc1nsnc1N1CCOCC1 [Timolol] | 
25.67 | 29.00 | 82.33 | 20.43 | 27.57 | 70.67 | 52.5714 | 3.8 | 0.0039 | CC(C(=O)O)c1cccc(C(=O)c2ccccc2)c1 (centres unmarked) [Ketoprofen] | k′MIC (1:2) [1]: 82.3; k′MIC (2:1) [1]: 70.7; K′MIC ([2]; MIC 2:1, Table 5): 52
24.00 | 24.00 | 32.33 | 79.00 | 90.43 | 132.33 | 53.2857 | 3.8 | 0.0027 | CC(CCc1ccccc1)NCC(O)c1ccc(O)c(C(N)=O)c1 (centres unmarked) [Labetalol] | 
 |  |  |  |  |  | 53.2857 | 3.8 | 0.0044 | CC(C)Cc1ccc(C(C)C(=O)O)cc1 (centres unmarked) [Ibuprofen] | 
none | 30.67 | 30.67 | none | 19.00 | 34.00 |  |  |  | COc1ccc(Cl)cc1C(=O)NCCc1ccc(S(=O)(=O)NC(=O)NC2CCCCC2)cc1 [glybenclamide] | 
54.00 | 64.00 | 42.33 | 43.29 | 49.00 | 82.33 | 46.1429 | 3.3 | 0.0035 | C=CCc1ccccc1OCC(O)CNC(C)C (centres unmarked) [Alprenolol] | 
30.67 | 44.00 | 110.67 | 23.29 | 34.71 | 95.67 |  |  |  | O=C(CCCN1CCC(O)(c2ccc(Cl)cc2)CC1)c1ccc(F)cc1 [haloperidol] | 

Reference: patent US7659240B2, “Mucin immobilized chromatography” (Vertex Pharmaceuticals Incorporated, priority 2002, dated 2010)
